PMC9025810, “Interaction of Antifungal Drugs with CYP3A- and OATP1B-Mediated Venetoclax Elimination” (Pharmaceutics, 2022)
Read-outs that look alike come from different tables or passages of the source.

Experiments:
[1] = Venetoclax plasma pharmacokinetics in wild-type, CYP3A(−/−) and OATP1B2(−/−) mice; assay type: in vivo; details: for AUC(0-t) / Cmax: mouse, plasma, po, mean (SE)
Method: In vivo experiments were performed with female and male mice from inbred wild-type strains (FVB, DBA) or with age- and sex-matched genetically-engineered mice with a deficiency of the Cyp3a locus (8-genes; […] The studies were conducted in accordance with the NIH's Guide for the Care and Use of Laboratory Animals and as approved by the University Laboratory Animal Resources Animal Care and Use Committee at Ohio State University (2015A00000101-R2; last approved 20 September 2021) and. Mice were housed in a temperature- and light-controlled environment with free access to water and a standard diet, excluding a 3-h fast before venetoclax administration. For in vivo studies, venetoclax was prepared for oral administration by dissolving the powder in DMSO (5%) and then adding PEG300 (50%), Tween-80 (5%), and water (40%) stepwise to create a suspension with a final concentration of 2 mg/mL. […] Based on our previous experience, all experiments were prospectively designed to have group sizes of five; however, pharmacokinetic data from two CYP3A(-/-) mice were excluded due to tolerability concerns, resulting in a final group size of three (Supplementary Table S1). Pharmacokinetic studies were performed as described previously. In brief, approximately 30 μL of whole blood was collected from each mouse at six time points between 5 min and 8 h after venetoclax administration; in most cases, samples were collected at 5 min, 15 min, 30 min, 1 h, 3 h, and 8 h. The first three samples were collected from a submandibular vein using a sterile 5-mm Goldenrod Animal Lancet and a heparinized capillary tube. The fourth and fifth samples were collected from the retro-orbital venous plexus using capillary tubes after anesthetizing the mice using 2% isoflurane. The terminal sample was collected into a 1.3-mL tube containing heparin by cardiac puncture using a syringe and needle. Whole blood samples were centrifuged at 13,000× g for 5 min. The plasma supernatant was then collected, immediately placed on dry ice, and stored at -80 °C until analysis. Venetoclax was quantified using a validated UHPLC-MS/MS analytical method; this method utilizes 5-μL sample volumes and has a lower limit of quantification of 5 ng/mL. Non-compartmental analysis was performed to determine the pharmacokinetic parameters of venetoclax using Phoenix WinNonlin version 8.0 (Certara, Princeton, NJ, USA). Peak plasma concentration (Cmax) was determined by visual inspection of the data from the log concentration versus time curves. The linear trapezoidal rule was used to obtain the area under the plasma concentration-time curve from time zero to the time of the last measurable concentration (AUC0-last).

[2] = cited from earlier work
[3] = plasma; cited from earlier work
[4] = cited from earlier work; remark: listed apart in the source

- Venetoclax AUC Fold Increase ([1]; CYP3A(−/−) + ketoconazole 50 mg/kg versus vehicle-treated CYP3A(−/−), listed as venetoclax): 1.6 fold
- Venetoclax AUC Fold Increase ([1]; female OATP1B2(−/−) versus wild-type DBA): 2.0 (versus wild-type DBA) fold
- Venetoclax AUC Fold Increase ([1]; female OATP1B2(−/−) versus wild-type DBA, listed as venetoclax): 2 fold
- AUC(0-t) ([1]; female, CYP3A(−/−) knockout (FVB.129P2 background), 10 mg/kg, CYP3A(−/−), female, venetoclax 10 mg/kg PO, co-treatment None (control of micafungin experiment), read-out: Venetoclax AUC(0–8h)): 10600 ng·h/mL
- AUC(0-t) ([1]; female, DBA, 10 mg/kg, wild-type DBA, female, n=10, venetoclax 10 mg/kg PO, no co-treatment, read-out: Venetoclax AUC(0–8h)): 3210 ng·h/mL
- Cmax ([1]; female, DBA, 10 mg/kg, wild-type DBA, n=10, venetoclax 10 mg/kg PO, no co-treatment): 523 ng/mL
- Cmax ([1]; female, FVB, 10 mg/kg, Table S1: wild-type FVB, female, N=5, venetoclax 10 mg/kg PO, no co-treatment): 1540 ng/mL
- AUC(0-t) ([1]; female, FVB, 10 mg/kg, Table S1: wild-type FVB, female, N=5, venetoclax 10 mg/kg PO, no co-treatment, read-out: Venetoclax AUC(0-last)): 7430 ng·h/mL
- Cmax ([1]; female, FVB, 10 mg/kg, wild-type FVB, female, venetoclax 10 mg/kg PO 30 min after ketoconazole 50 mg/kg PO): 3080 ng/mL
- AUC(0-t) ([1]; female, FVB, 10 mg/kg, wild-type FVB, female, venetoclax 10 mg/kg PO 30 min after ketoconazole 50 mg/kg PO, read-out: Venetoclax AUC(0–8h)): 19700 ng·h/mL
- AUC(0-t) ([1]; female, FVB, 10 mg/kg, wild-type FVB, female, venetoclax 10 mg/kg PO, co-treatment PEG400 (vehicle), read-out: Venetoclax AUC(0–8h)): 6530 ng·h/mL
- Cmax ([1]; female, FVB, 10 mg/kg, wild-type FVB, venetoclax 10 mg/kg PO, co-treatment PEG400 (vehicle)): 1030 ng/mL
- Cmax ([1]; female, FVB.129P2 CYP3A(-/-), 10 mg/kg, Table S1: CYP3A(-/-), female, N=3, venetoclax 10 mg/kg PO, no co-treatment): 3400 ng/mL
- AUC(0-t) ([1]; female, FVB.129P2 CYP3A(-/-), 10 mg/kg, Table S1: CYP3A(-/-), female, N=3, venetoclax 10 mg/kg PO, no co-treatment, read-out: Venetoclax AUC(0-last)): 13700 ng·h/mL
- Cmax ([1]; female, FVB.129P2 CYP3A(−/−), 10 mg/kg, CYP3A(−/−), female, venetoclax 10 mg/kg PO 30 min after ketoconazole 50 mg/kg PO): 2700 ng/mL
- AUC(0-t) ([1]; female, FVB.129P2 CYP3A(−/−), 10 mg/kg, CYP3A(−/−), female, venetoclax 10 mg/kg PO 30 min after ketoconazole 50 mg/kg PO, read-out: Venetoclax AUC(0–8h)): 17300 ng·h/mL
- AUC(0-t) ([1]; female, FVB.129P2 CYP3A(−/−), 10 mg/kg, CYP3A(−/−), female, venetoclax 10 mg/kg PO, co-treatment PEG 400 (vehicle), read-out: Venetoclax AUC(0–8h)): 10600 ng·h/mL
- Cmax ([1]; female, FVB.129P2 CYP3A(−/−), 10 mg/kg, CYP3A(−/−), venetoclax 10 mg/kg PO, co-treatment None (control of micafungin experiment)): 1830 ng/mL
- Cmax ([1]; female, FVB.129P2 CYP3A(−/−), 10 mg/kg, CYP3A(−/−), venetoclax 10 mg/kg PO, co-treatment PEG 400 (vehicle)): 1570 ng/mL
- Cmax ([1]; female, FVB.129P2 CYP3A(−/−), CYP3A(−/−), female, venetoclax 10 mg/kg PO 30 min after micafungin 100 mg/kg IV): 2280 ng/mL
- AUC(0-t) ([1]; female, FVB.129P2 CYP3A(−/−), CYP3A(−/−), female, venetoclax 10 mg/kg PO 30 min after micafungin 100 mg/kg IV, read-out: Venetoclax AUC(0–8h)): 13600 ng·h/mL
- AUC(0-t) ([1]; female, OATP1B2(−/−), 10 mg/kg, OATP1B2(−/−), female, n=10, venetoclax 10 mg/kg PO, no co-treatment, read-out: Venetoclax AUC(0–8h)): 6480 ng·h/mL
- Cmax ([1]; female, OATP1B2(−/−), 10 mg/kg, n=10, venetoclax 10 mg/kg PO, no co-treatment): 1070 ng/mL
- Venetoclax AUC Fold Increase ([1]; male OATP1B2(-/-) versus male wild-type DBA (Figure S3, Table S1)): 1.7 fold
- Cmax ([1]; male, DBA, 10 mg/kg, Table S1: wild-type DBA, male, venetoclax 10 mg/kg PO, no co-treatment): 958 ng/mL
- AUC(0-t) ([1]; male, DBA, 10 mg/kg, Table S1: wild-type DBA, male, venetoclax 10 mg/kg PO, no co-treatment, read-out: Venetoclax AUC(0-last)): 5270 ng·h/mL
- Cmax ([1]; male, OATP1B2(-/-), 10 mg/kg, Table S1: OATP1B2(-/-), male, venetoclax 10 mg/kg PO, no co-treatment): 1610 ng/mL
- AUC(0-t) ([1]; male, OATP1B2(-/-), 10 mg/kg, Table S1: OATP1B2(-/-), male, venetoclax 10 mg/kg PO, no co-treatment, read-out: Venetoclax AUC(0-last)): 9200 ng·h/mL
- Venetoclax AUC Fold Increase ([1]; untreated CYP3A(-/-) versus untreated wild-type FVB, female (Figure S2, Table S1)): 1.8 fold
- Venetoclax AUC Fold Increase ([1]; vehicle-treated CYP3A(−/−) versus vehicle-treated wild-type FVB, listed as venetoclax): 1.6 fold
- Venetoclax AUC Fold Increase ([1]; wild-type FVB + ketoconazole 50 mg/kg versus vehicle-treated wild-type FVB, listed as venetoclax): 3 fold
SMILES: CC1(C)CCC(CN2CCN(c3ccc(C(=O)NS(=O)(=O)c4ccc(NCC5CCOCC5)c([N+](=O)[O-])c4)c(Oc4cnc5[nH]ccc5c4)c3)CC2)=C(c2ccc(Cl)cc2)C1 [Venetoclax]
- Venetoclax AUC Fold Increase ([1]; CYP3A(−/−) + ketoconazole 50 mg/kg versus vehicle-treated CYP3A(−/−)): 1.6 (versus vehicle-treated wild-type CYP3A(−/−)) fold
- Venetoclax AUC Fold Increase ([1]; vehicle-treated CYP3A(−/−) versus vehicle-treated wild-type FVB): 1.6 (versus vehicle-treated wild-type FVB) fold
- Venetoclax AUC Fold Increase ([1]; wild-type FVB + ketoconazole 50 mg/kg versus vehicle-treated wild-type FVB): 3.0 (versus vehicle-treated wild-type FVB) fold
- Reduction of clearance in vivo ([2]; mice with a deficiency of all OATP1A and OATP1B type transporters): 60%
- DDI between venetoclax and ketoconazole (increase in venetoclax exposure) ([2]; mice): ~ 3 fold
- Protein-bound in plasma [3]: > 99%
- Variation in apparent oral clearance ([4]; at approved doses, patients): ~15 fold
- DDI between venetoclax and ketoconazole (increase in venetoclax exposure) ([4]; humans): ~ 6 fold
- Increase in systemic exposure to venetoclax with a single dose of rifampin ([4]; humans): 2 fold
